Values after ≈ are worked out from the molar mass of the structure shown.

Data set [1] in a line: Aqueous solubility of apixaban. The data set is classed as physicochemical.
Data set [2] is described as follows: Contact angle of apixaban drug substance with water. The data set is classed as physicochemical.

Consider `COc1ccc(-n2nc(C(N)=O)c3c2C(=O)N(c2ccc(N4CCCCC4=O)cc2)CC3)cc1` [apixaban, 4,5,6,7-tetrahydro-1-(4-methoxyphenyl)-7-oxo-6-[4-(2-oxo-1-piperidinyl)phenyl]-1H-pyrazolo[3,4-c]pyridine-3-carboxamide], for which the dose/solubility ratio in data set [1] (10 mg apixaban dose) was 250 mL. The solubility (in general, the concentration that dissolves in the medium under given conditions) in data set [1] (aqueous medium, at all physiological pH) worked out at 40 µg/mL (≈ 87.1 µM). The compound also gave a contact angle in data set [2] of 54 °.

The values above are taken from patent US9326945B2, “Apixaban formulations” (Bristol-Myers Squibb Company, priority 2010, dated 2016).
